Assay results from patent US20240148821A1, “PHARMACEUTICAL USE OF CYCLIC PEPTIDE COMPOUND” (CHUGAI SEIYAKU KABUSHIKI KAISHA, priority 2021, published 2024).
Numbered stars: 1 amine (or outer) side, 2 acyl side, 3 side chain; on linkers, the order of the positions; unused ones are H or OH. Bridge positions count the residues as written; N and C are the ends. Square brackets hold non-standard residues; d marks the D form. Peptide text beside a SMILES is read from it. * marks the point of attachment. hPhe(3-Cl-4-CF3) = N[C@@H](CCc1ccc(C(F)(F)F)c(Cl)c1)C(=O)O; hPhe(3-F,4-CF3) = N[C@@H](CCc1ccc(C(F)(F)F)c(F)c1)C(=O)O; NEtPhe(2-Cl) = CCN[C@@H](Cc1ccccc1Cl)C(=O)O; NMePhe(4-Me) = CN[C@@H](Cc1ccc(C)cc1)C(=O)O; NMedβ3hAla = C[C@H](CC(=O)[*:2])N(C)[*:1]; NMeGly(cPent) = CN[C@H](C(=O)O)C1CCCC1; X38 = CN1CCN(CCN(CC(=O)[*:2])[*:1])CC1; NMeGly(cBu) = CN[C@H](C(=O)O)C1CCC1; NMeCha = CN[C@@H](CC1CCCCC1)C(=O)O; X82 = O=C(CN(CCC1CNC1)[*:1])[*:2]; NMeChg = CN[C@H](C(=O)O)C1CCCCC1; NMeI = CC[C@H](C)[C@H](NC)C(=O)O; X58 = CNCCOCCN(CC(=O)[*:2])[*:1]; NMeD = CN[C@@H](CC(=O)O)C(=O)O; NMeL = CN[C@@H](CC(C)C)C(=O)O; NMehSer = CN[C@@H](CCO)C(=O)O; NMeV = CN[C@H](C(=O)O)C(C)C; Morpholide = C1CN(*)CCO1; NMeA = CN[C@@H](C)C(=O)O; NMeAib = CNC(C)(C)C(=O)O; Piperidide = C1CCN(*)CC1; Ac5c = NC1(C(=O)O)CCCC1; Aze = O=C(O)[C@@H]1CCN1; Sar = CNCC(=O)O

The molecules below were run against protein-protein interaction between Kras and SOS1 (biotin-tagged human Kras loaded with GDP, His-tagged human SOS1) (Homo sapiens (Human), UniProt P01116, G12D) (assay: Protein-protein interaction inhibition between Kras and SOS1 (KrasG12D-SOS PPI) using AlphaScreen). Settings: AlphaScreen; biotin-tagged human Kras loaded with GDP, His-tagged human SOS1; read-out: KRAS G12D-SOS PPI IC50.
Format: biochemical

Q: With `CC[C@H](C)[C@@H]1NC(=O)[C@H](C)N(C)C(=O)C[C@@H](C)N(C)C(=O)[C@H](C2CCCCC2)N(C)C(=O)C(C)(C)N(C)C(=O)[C@@H]2CCCN2C(=O)[C@H](CCc2ccc(C(F)(F)F)c(Cl)c2)NC(=O)CN(C)C(=O)[C@H](CC2CCCCC2)N(C)C(=O)[C@@H]2CCN2C(=O)[C@H](C)N(C)C1=O` [Compound 2155] (cyclo([Aze][NMeCha][Sar][hPhe(3-Cl-4-CF3)]P[NMeAib][NMeChg][NMedβ3hAla][NMeA]I[NMeA])) as the molecule, how does the IC50 read?
A: Its IC50 is 28 nM.

Q: `CC[C@H](C)[C@@H]1NC(=O)[C@H](C)N(C)C(=O)C[C@@H](C)N(C)C(=O)[C@H](C2CCC2)N(C)C(=O)C(C)(C)N(C)C(=O)[C@@H]2CCCN2C(=O)[C@H](CCc2ccc(C(F)(F)F)c(Cl)c2)NC(=O)CN(C)C(=O)[C@H](CC2CCCCC2)N(C)C(=O)[C@@H]2CCN2C(=O)[C@H](C)N(C)C1=O` [Compound 2157] (cyclo([Aze][NMeCha][Sar][hPhe(3-Cl-4-CF3)]P[NMeAib][NMeGly(cBu)][NMedβ3hAla][NMeA]I[NMeA])) was tested. Which IC50 did it give?
A: The IC50 was 6.9 nM.

Q: Which IC50 does the source give for `CC[C@H](C)[C@@H]1NC(=O)[C@H]([C@@H](C)CC)N(C)C(=O)C[C@@H](C)N(C)C(=O)[C@H](C(C)C)N(C)C(=O)C(C)(C)N(C)C(=O)[C@@H]2CCCN2C(=O)[C@H](CCc2ccc(C(F)(F)F)c(Cl)c2)NC(=O)CN(C)C(=O)[C@H](CC2CCCCC2)N(C)C(=O)[C@@H]2CCN2C(=O)[C@H](C)N(C)C1=O` [Compound 2159, (5S,8S,11S,15R,18S,23aS,29S,35S,37aS)-8,11-di((S)-sec-butyl)-29-(3-chloro-4-(trifluoromethyl)phenethyl)-35-(cylohexylmethyl)-18-isopropyl-5,6,12,15,16,19,21,21,22,33,36-undecamethyltetracosahydro-2H-azeto[2,1-u]pyrrolo[2,1-i] [1,4,7,10,13,16,19,22,25,28,31]undecaazacyclotetratriacontyne-4,7,10,13,17,20,23,28,31,34,37(14H)-undecone] (cyclo([Aze][NMeCha][Sar][hPhe(3-Cl-4-CF3)]P[NMeAib][NMeV][NMedβ3hAla][NMeI]I[NMeA])) here?
A: The IC50 was 3.5 nM.

Q: With `CC[C@H](C)[C@@H]1NC(=O)[C@H](C)N(C)C(=O)C[C@@H](C(=O)N2CCCCC2)N(C)C(=O)[C@H](C(C)C)N(C)C(=O)C2(CCCC2)NC(=O)[C@H](Cc2ccccc2Cl)N(CC)C(=O)[C@H](CCc2ccc(C(F)(F)F)c(Cl)c2)NC(=O)CN(C)C(=O)[C@H](CC2CCCCC2)N(C)C(=O)CN(C)C(=O)CN(C)C1=O` [Compound 2161, (8S,11S,17S,26S,29S,33S,36S)-8-[(2-chlorophenyl)methyl]-11-[2-[3-chloro-4-(trifluoromethyl)phenyl]ethyl]-17-(cyclohexylmethyl)-9-ethyl-36-isopropyl-15,18,21,24,29,30,34,37-octamethyl-26-[(1S)-1-methylpropyl]-33-(piperidine-1-carbonyl)-6,9,12,15,18,21,24,27,30,34,37-undecazaspiro[4.33]octatriacontane-7,10,13,16,19,22,25,28,31,35,38-undecone] ([NMeA]I[Sar][Sar][NMeCha][Sar][hPhe(3-Cl-4-CF3)][NEtPhe(2-Cl)][Ac5c][NMeV][NMeD]-Piperidide; lactam N-11) as the molecule, how does the IC50 read?
A: Its IC50 is 480 nM.

Q: `CC[C@H](C)[C@@H]1NC(=O)[C@H](C)N(C)C(=O)C[C@@H](C(=O)N(C)C)N(C)C(=O)[C@H]([C@@H](C)CC)N(C)C(=O)C2(CCCC2)NC(=O)[C@H](Cc2ccccc2Cl)N(CC)C(=O)[C@H](CCc2ccc(C(F)(F)F)c(Cl)c2)NC(=O)CN(C)C(=O)[C@H](Cc2ccc(C)cc2)N(C)C(=O)[C@@H]2CCN2C(=O)[C@H](C)N(C)C1=O` [Compound 2163] ([NMeA]I[NMeA][Aze][NMePhe(4-Me)][Sar][hPhe(3-Cl-4-CF3)][NEtPhe(2-Cl)][Ac5c][NMeI][NMeD]-NMe2; lactam N-11) was tested. Which IC50 did it give?
A: Its IC50 is 73 nM.

Q: For `CC[C@H](C)[C@@H]1NC(=O)[C@H](C)N(C)C(=O)C[C@@H](C(=O)N(C)C)N(C)C(=O)[C@H](C(C)C)N(C)C(=O)C2(CCCC2)NC(=O)[C@H](Cc2ccccc2Cl)N(CC)C(=O)[C@H](CCc2ccc(C(F)(F)F)c(Cl)c2)NC(=O)CN(C)C(=O)[C@H](CC2CCCCC2)N(C)C(=O)CN(C)C(=O)CN(C)C1=O` [Compound 2164] ([NMeA]I[Sar][Sar][NMeCha][Sar][hPhe(3-Cl-4-CF3)][NEtPhe(2-Cl)][Ac5c][NMeV][NMeD]-NMe2; lactam N-11), which IC50 is on record?
A: Its IC50 is 300 nM.

Q: Which IC50 does the source give for `CC[C@H](C)[C@@H]1NC(=O)[C@H](CC(C)C)N(C)C(=O)C[C@@H](C(=O)N(C)C)N(C)C(=O)[C@H]([C@@H](C)CC)N(C)C(=O)C2(CCCC2)NC(=O)[C@H](Cc2ccccc2Cl)N(CC)C(=O)[C@H](CCc2ccc(C(F)(F)F)c(Cl)c2)NC(=O)CN(C)C(=O)[C@H](Cc2ccc(C)cc2)N(C)C(=O)[C@@H]2CCN2C(=O)[C@H](C)N(C)C1=O` [Compound 2165] ([NMeL]I[NMeA][Aze][NMePhe(4-Me)][Sar][hPhe(3-Cl-4-CF3)][NEtPhe(2-Cl)][Ac5c][NMeI][NMeD]-NMe2; lactam N-11) here?
A: Its IC50 is 220 nM.

Q: `CC[C@H](C)[C@@H]1NC(=O)[C@H](C)N(C)C(=O)C[C@@H](C(=O)N2CCCCC2)N(C)C(=O)[C@H](C(C)C)N(C)C(=O)C2(CCCC2)NC(=O)[C@H](Cc2ccccc2Cl)N(CC)C(=O)[C@H](CCc2ccc(C(F)(F)F)c(Cl)c2)NC(=O)CN(C)C(=O)[C@H](Cc2ccc(C)cc2)N(C)C(=O)CN(C)C(=O)CN(C)C1=O` [Compound 2166] ([NMeA]I[Sar][Sar][NMePhe(4-Me)][Sar][hPhe(3-Cl-4-CF3)][NEtPhe(2-Cl)][Ac5c][NMeV][NMeD]-Piperidide; lactam N-11) was tested. Which IC50 did it give?
A: The IC50 was 330 nM.

Q: How did the IC50 turn out when `CC[C@H](C)[C@@H]1NC(=O)[C@H](C)N(C)C(=O)C[C@@H](C(=O)N2CCOCC2)N(C)C(=O)[C@H](C(C)C)N(C)C(=O)C2(CCCC2)NC(=O)[C@H](Cc2ccccc2Cl)N(CC)C(=O)[C@H](CCc2ccc(C(F)(F)F)c(Cl)c2)NC(=O)CN(C)C(=O)[C@H](CC2CCCCC2)N(C)C(=O)CN(C)C(=O)CN(C)C1=O` [Compound 2167] ([NMeA]I[Sar][Sar][NMeCha][Sar][hPhe(3-Cl-4-CF3)][NEtPhe(2-Cl)][Ac5c][NMeV][NMeD]-Morpholide; lactam N-11) was run?
A: Its IC50 is 380 nM.

Q: How did the IC50 turn out when `CC[C@H](C)[C@@H]1NC(=O)[C@H](CC(C)C)N(C)C(=O)C[C@@H](C(=O)N2CCCCC2)N(C)C(=O)[C@H](C2CCCCC2)N(C)C(=O)C2(CCCC2)NC(=O)[C@H](CCOC)N(C)C(=O)[C@H](CCc2ccc(C(F)(F)F)c(Cl)c2)NC(=O)CN(C)C(=O)[C@H](CC2CCCCC2)N(C)C(=O)CN(C)C(=O)CN(C)C1=O` [Compound 2168] ([NMeL]I[Sar][Sar][NMeCha][Sar][hPhe(3-Cl-4-CF3)][NMehSer](Me)[Ac5c][NMeChg][NMeD]-Piperidide; lactam N-11) was run?
A: The IC50 was 1.3 nM.

Q: How did the IC50 turn out when `CC[C@H](C)[C@@H]1NC(=O)[C@H](CC(C)C)N(C)C(=O)C[C@@H](C(=O)N2CCCCC2)N(C)C(=O)[C@H](C2CCCCC2)N(C)C(=O)C2(CCCC2)NC(=O)CN(CCN2CCN(C)CC2)C(=O)[C@H](CCc2ccc(C(F)(F)F)c(Cl)c2)NC(=O)CN(C)C(=O)[C@H](CC2CCCCC2)N(C)C(=O)CN(C)C(=O)CN(C)C1=O` [Compound 2180, (11S,17S,26S,29S,33S,36S)-11-[2-[3-chloro-4-(trifluoromethyl)phenyl]ethyl]-36-cyclohexyl-17-(cyclohexylmethyl)-29-isobutyl-15,18,21,24,30,34,37-heptamethyl-9-[2-(4-methylpiperazin-1-yl)ethyl]-26-[(1S)-1-methylpropyl]-33-(piperidine-1-carbonyl)-6,9,12,15,18,21,24,27,30,34,37-undecazaspiro[4.33]octatriacontane-7,10,13,16,19,22,25,28,31,35,38-undecone] ([NMeL]I[Sar][Sar][NMeCha][Sar][hPhe(3-Cl-4-CF3)][X38][Ac5c][NMeChg][NMeD]-Piperidide; lactam N-11) was run?
A: The IC50 was 0.93 nM.

Q: With `CC[C@H](C)[C@@H]1NC(=O)[C@H](CC(C)C)N(C)C(=O)C[C@@H](C(=O)N(C)C)N(C)C(=O)[C@H](C2CCCC2)N(C)C(=O)C2(CCCC2)NC(=O)CN(CCC2CNC2)C(=O)[C@H](CCc2ccc(C(F)(F)F)c(F)c2)NC(=O)CN(C)C(=O)[C@H](CC2CCCCC2)N(C)C(=O)[C@@H]2CCN2C(=O)[C@H](C)N(C)C1=O` [Compound 2182, (3S,6S,9S,13S,16S,25S,31S,34S)-23-[2-(azetidin-3-yl)ethyl]-31-(cyclohexylmethyl)-16-cyclopentyl-25-[2-[3-fluoro-4-(trifluoromethyl)phenyl]ethyl]-9-isobutyl-N,N,3,4,10,14,17,29,32-nonamethyl-6-[(1S)-1-methylpropyl]-2,5,8,11,15,18,21,24,27,30,33-undecaoxo-spiro[1,4,7,10,14,17,20,23,26,29,32-undecazabicyclo[32.2.0]hexatriacontane-19,1′-cyclopentane]-13-carboxamide] ([NMeL]I[NMeA][Aze][NMeCha][Sar][hPhe(3-F,4-CF3)][X82][Ac5c][NMeGly(cPent)][NMeD]-NMe2; lactam N-11) as the molecule, how does the IC50 read?
A: Its IC50 is 3.6 nM.

Q: With `CC[C@H](C)[C@@H]1NC(=O)[C@H](CC(C)C)N(C)C(=O)C[C@@H](C(=O)N(C)C)N(C)C(=O)[C@H](C2CCCC2)N(C)C(=O)C2(CCCC2)NC(=O)CN(CCOCCNC)C(=O)[C@H](CCc2ccc(C(F)(F)F)c(Cl)c2)NC(=O)CN(C)C(=O)[C@H](CC2CCCCC2)N(C)C(=O)[C@@H]2CCN2C(=O)[C@H](C)N(C)C1=O` [Compound 2183, (3S,6S,9S,13S,16S,25S,31S,34S)-25-[2-[3-chloro-4-(trifluoromethyl)phenyl]ethyl]-31-(cyclohexylmethyl)-16-cyclopentyl-9-isobutyl-N,N,3,4,10,14,17,29,32-nonamethyl-23-[2-[2-(methylamino)ethoxy]ethyl]-6-[(1S)-1-methylpropyl]-2,5,8,11,15,18,21,24,27,30,33-undecaoxo-spiro[1,4,7,10,14,17,20,23,26,29,32-undecazabicyclo[32.2.0]hexatriacontane-19,1′-cyclopentane]-13-carboxamide] ([NMeL]I[NMeA][Aze][NMeCha][Sar][hPhe(3-Cl-4-CF3)][X58][Ac5c][NMeGly(cPent)][NMeD]-NMe2; lactam N-11) as the molecule, how does the IC50 read?
A: The IC50 was 1.9 nM.
